This passage reports IC50 results from patent US20240366598A1, “GLUCOSE-DEPENDENT INSULINOTROPIC POLYPEPTIDE RECEPTOR ANTAGONISTS AND USES THEREOF” (Pfizer Inc., priority 2023, published 2024).

Structures can show the parent of a compound that is named as a salt.

The IC50 is the concentration that gives 50% inhibition.

The target of this test is T1, human Glucose-dependent Insulinotropic Polypeptide Receptor (hGIPR) (Homo sapiens, UniProt P48546).
T1 sequence (P48546 22-466): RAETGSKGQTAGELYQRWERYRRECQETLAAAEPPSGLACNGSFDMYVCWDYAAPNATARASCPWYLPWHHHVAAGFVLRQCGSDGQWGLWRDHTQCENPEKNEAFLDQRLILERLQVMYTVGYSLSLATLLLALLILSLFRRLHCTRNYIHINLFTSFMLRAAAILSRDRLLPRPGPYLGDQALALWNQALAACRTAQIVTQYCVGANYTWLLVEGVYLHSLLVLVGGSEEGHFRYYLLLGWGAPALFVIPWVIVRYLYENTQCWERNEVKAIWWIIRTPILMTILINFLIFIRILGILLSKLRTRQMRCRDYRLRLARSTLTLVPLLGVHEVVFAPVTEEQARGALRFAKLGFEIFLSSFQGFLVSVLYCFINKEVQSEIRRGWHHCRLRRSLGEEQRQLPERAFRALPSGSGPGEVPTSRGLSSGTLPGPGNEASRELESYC
The test can be described thus: Functional in vitro GIPR antagonist potency assay (cAMP HTRF, CHO-K1 cells stably expressing hGIPR, hGIP stimulation at about EC80). The format is cell-based. The following applies: geometric mean, hGIP at estimated EC80, examples marked ^2: overall geometric mean of multiple forms (including salts) tested. The protocol: Example AA. Functional In Vitro GIPR Antagonist Potency Assay
The functional in vitro antagonist potency for test compounds was determined by monitoring intracellular cyclic adenosine monophosphate (cAMP) levels in Chinese hamster ovary (CHO)—K1 cells stably expressing the human Glucose-dependent Insulinotropic Polypeptide Receptor (hGIPR). Following agonist activation, hGIPR associates with the G-protein complex causing the Gαs subunit to exchange bound guanosine diphosphate (GDP) for guanosine triphosphate (GTP), followed by dissociation of the Gαs-GTP complex. The activated Gas subunit can couple to downstream effectors to regulate the levels of second messengers or cAMP within the cell. Thereby, determination of intracellular cAMP levels allows for pharmacological characterization. Intracellular cAMP levels are quantitated using a homogenous assay utilizing the Homogeneous Time Resolved Fluorescence (HTRF) technology from Perkin Elmer. […] The two entities compete for binding to a monoclonal anti-cAMP antibody labeled with cryptate. The specific signal is inversely proportional to the concentration of cAMP in the cells.
Test compounds were solubilized to a concentration of 30 mM in 100% dimethyl sulfoxide (DMSO). An 11-point dilution series using 1 in 3.162-fold serial dilutions was created in 100% DMSO with a top concentration of 8 mM. The serially diluted compound was spotted with an Echo Acoustic liquid handler (Beckman Coulter) into a 384-well assay plate (Corning, Cat No. 3824) at 50 nL/well with duplicate points at each concentration, at a 200× final assay concentration (FAC). The final compound concentration range in the assay was 40 μM to […], with a final DMSO concentration of 0.5%.
Frozen assay-ready vials (at 1×10^7 cells/vial) of CHO-K1 cells stably expressing the Gs-coupled human GIPR receptor (Eurofins, DiscoverX, Cat No. 95-0146C2) were thawed, counted, and resuspended in assay buffer consisting of Hank's Balanced Salt Solution (HBSS, Lonza Cat No. 10-527) containing 20 mM (4-(2-hydroxyethyl)-1-piperazineethanesulfonic acid (HEPES, Lonza, Cat No. 17-737E), 0.1% bovine serum albumin (BSA, Sigma, Cat No. A7979), and 200 μM 3-isobutyl-1-methylxanthine (IBMX, Sigma, Cat No. 15879) at a density of 4×10^5 cells/mL. Cells were added to assay plate (5 μL/well of 4×10^5 cells/mL stock for 2,000 cells/well final) containing 50 nL of 200× FAC test compound, and incubated at 37° C. (95% O2: 5% CO2) for 2 hours, with micro-clime lids (Labcyte, Cat No. LLS-0310). Following the 2-hour cell and compound incubation, a stimulation mix comprised of hGIPR agonist human glucose-dependent insulinotropic polypeptide (hGIP, full length, Sigma Cat No. G2269) in assay buffer/0.1% DMSO was added to the assay plate (5 μL/well) at an estimated EC80 FAC (based on previous hGIP agonist curves) and incubated for another 30 minutes with micro-clime lids at 37° C. (95% O2: 5% CO2), after which intracellular cAMP levels were quantified as per Perkin Elmer's protocol (5 μL of d2 and then 5 μL cryptate, incubated for 1 hour at room temperature). Emission spectra of samples were measured on a Pherastar plate reader (BMG Labtech Inc) using a HTRF protocol (excitation, 320 nm; emission, 665 nm/620 nm).
(95% O2: 5% CO2), with a micro-clime lid. Following the 2-hour cell and DMSO incubation, a hGIP concentration response curve at 2× FAC (12-point curve using 1 in 3 serial dilutions, with triplicate points at each concentration, 100 nM final top concentration) in assay buffer/1% DMSO was added (5 μL/well) and incubated for a further 30 minutes with a micro-clime lid at 37° C. (95% O2: 5% CO2), after which intracellular cAMP levels were quantified and samples measured as described previously. Experiments passed quality control if the agonist concentration used for stimulation fell between the on-the-day EC50-EC90. […]
Take `CC(C)c1ccc(NC(=O)N2CCC[C@@H]2C(=O)Nc2ccc(-c3ccc(C(=O)O)cc3)cc2)cc1` [Example 4, 4′-[(1-{[4-(Propan-2-yl)phenyl]carbamoyl}-D-prolyl)amino][1,1′-biphenyl]-4-carboxylic acid]: the IC50 was 4.1 nM. To `CC(C)c1ccc(NC(=O)N2CCC[C@@H]2C(=O)Nc2ccc(-c3ccc(C(=O)O)cc3)cn2)cc1` [Example 5, Ammonium 4-{6-[(1-{[4-(propan-2-yl)phenyl]carbamoyl}-D-prolyl)amino]pyridin-3-yl}benzoate] belongs 9.1 nM; to `CC(C)c1ccc(NC(=O)N2CCC[C@@H]2C(=O)Nc2ccc(-c3ccc(C(=O)O)cc3)cc2F)cc1` [Example 6, 3′-Fluoro-4′-[(1-{[4-(propan-2-yl)phenyl]carbamoyl}-D-prolyl)amino][1,1′-biphenyl]-4-carboxylic acid], 6.5 nM. To `O=C(O)c1ccc(-c2ccc(NC(=O)[C@H]3CCCN3C(=O)Nc3ccc(C4CC4)cc3)cc2)cc1` [Example 7, Ammonium 4′-({1-[(4-cyclopropylphenyl)carbamoyl]-D-prolyl}amino)[1,1′-biphenyl]-4-carboxylate] belongs 8.1 nM. Under `CC(C)c1ccc(NC(=O)N2CCC[C@@H]2C(=O)Nc2ccc(-c3ncc(C(=O)O)cn3)cc2)cc1` [Example 8, ammonium 2-{4-[(1-{[4-(propan-2-yl)phenyl]carbamoyl}-D-prolyl)amino]phenyl}pyrimidine-5-carboxylate] stands 150 nM; under `CC(C)c1ccc(NC(=O)N2CCC[C@@H]2C(=O)Nc2ccc(-c3cccc(C(=O)O)n3)cc2)cc1` [Example 9, ammonium 6-{4-[(1-{[4-(propan-2-yl)phenyl]carbamoyl}-D-prolyl)amino]phenyl}pyridine-2-carboxylate], 130 nM; under `CC(C)c1ccc(NC(=O)N2CCC[C@@H]2C(=O)Nc2ccc3cc(C(=O)O)ccc3c2)cc1` [Example 10, 6-[(1-{[4-(propan-2-yl)phenyl]carbamoyl}-D-prolyl)amino]naphthalene-2-carboxylic acid], 67 nM.

As for `Cc1cc(NC(=O)[C@H]2CCCN2C(=O)Nc2ccc(C(C)C)cc2)cc2ccc(C(=O)O)nc12` [Example 11, 8-methyl-6-[(1-{[4-(propan-2-yl)phenyl]carbamoyl}-D-prolyl)amino]quinoline-2-carboxylic acid, trifluoroacetate salt], the IC50 is 180 nM. To `C=C(C)c1ccc(NC(=O)N2CCC[C@@H]2C(=O)Nc2ccc(-c3ccc(C(=O)O)cc3)cc2)cc1` [Example 12, 4′-[(1-{[4-(prop-1-en-2-yl)phenyl]carbamoyl}-D-prolyl)amino][1,1′-biphenyl]-4-carboxylic acid] belongs 10 nM; to `O=C(O)c1ccc(-c2ccc(NC(=O)[C@H]3CCCN3C(=O)Nc3ccc(Cl)cc3)cc2)cc1` [Example 13, ammonium 4′-({1-[(4-chlorophenyl)carbamoyl]-D-prolyl}amino)[1,1′-biphenyl]-4-carboxylate], 12 nM; to `CC(C)c1ccc(NC(=O)N2CCC[C@@H]2C(=O)Nc2ccc(-c3ccnc(C(=O)O)c3)cc2)cc1` [Example 14, ammonium 4-{4-[(1-{[4-(propan-2-yl)phenyl]carbamoyl}-D-prolyl)amino]phenyl}pyridine-2-carboxylate], 88 nM. Under `CC(C)c1ccc(NC(=O)N2CCC[C@@H]2C(=O)Nc2c(F)cc(-c3ccc(C(=O)O)cc3)cc2F)cc1` [Example 15, 3′,5′-difluoro-4′-[(1-{[4-(propan-2-yl)phenyl]carbamoyl}-D-prolyl)amino][1,1′-biphenyl]-4-carboxylic acid] stands 8.1 nM.

For the compound `O=C(O)c1ccc(-c2ccc(NC(=O)[C@H]3CCCN3C(=O)Nc3ccc(C(F)(F)F)cc3)cc2)cc1` [Example 16, Ammonium 4′-[(1-{[4-(trifluoromethyl)phenyl]carbamoyl}-D-prolyl)amino][1,1′-biphenyl]-4-carboxylate], the IC50 is 3.7 nM. Under `Cc1cc(NC(=O)N2CCC[C@@H]2C(=O)Nc2ccc(-c3ccc(C(=O)O)nc3)cc2)ccc1C(F)(F)F` [Example 17, 5-{4-[(1-{[3-Methyl-4-(trifluoromethyl)phenyl]carbamoyl}-D-prolyl)amino]phenyl}pyridine-2-carboxylic acid] stands 14 nM; under `CC(C)c1ccc(NC(=O)N2CCC[C@@H]2C(=O)Nc2ccc(-c3ccc(C(=O)O)cc3)nc2)cc1` [Example 18, 4-{5-[(1-{[4-(Propan-2-yl)phenyl]carbamoyl}-D-prolyl)amino]pyridin-2-yl}benzoic acid], 15 nM; under `Cc1cc(NC(=O)N2CCC[C@@H]2C(=O)Nc2ccc(-c3ccc(C(=O)O)nc3)cc2)ccc1C(C)C` [Example 19, 5-{4-[(1-{[3-Methyl-4-(propan-2-yl)phenyl]carbamoyl}-D-prolyl)amino]phenyl}pyridine-2-carboxylic acid], 11 nM.

For `Cc1nc(C(=O)O)ccc1-c1ccc(NC(=O)[C@H]2CCCN2C(=O)Nc2ccc(C(C)C)cc2)cc1` [Example 20, 6-Methyl-5-{4-[(1-{[4-(propan-2-yl)phenyl]carbamoyl}-D-prolyl)amino]phenyl}pyridine-2-carboxylic acid], the IC50 was 12 nM. Under `COc1cc(-c2ccc(NC(=O)[C@H]3CCCN3C(=O)Nc3ccc(C(C)C)cc3)cc2)ccc1C(=O)O` [Example 21, 3-Methoxy-4′-[(1-{[4-(propan-2-yl)phenyl]carbamoyl}-D-prolyl)amino][1,1′-biphenyl]-4-carboxylic acid] stands 11 nM; under `O=C(O)c1ccc(-c2ccc(NC(=O)[C@H]3CCCN3C(=O)Nc3ccc(C(F)(F)F)cc3)cn2)cc1` [Example 22, 4-{5-[(1-{[4-(Trifluoromethyl)phenyl]carbamoyl}-D-prolyl)amino]pyridin-2-yl}benzoic acid], 62 nM; under `O=C(O)c1ccc(-c2ccc(NC(=O)[C@H]3CCCN3C(=O)Nc3ccc(C4CCC4)cc3)cc2)cc1` [Example 23, 4′-({1-[(4-Cyclobutylphenyl)carbamoyl]-D-prolyl}amino)[1,1′-biphenyl]-4-carboxylic acid], 2.7 nM.

For `O=C(O)c1ccc(-c2cnc(NC(=O)[C@H]3CCCN3C(=O)Nc3ccc(C(F)(F)F)cc3)c(F)c2)cc1` [Example 24, 4-{5-Fluoro-6-[(1-{[4-(trifluoromethyl)phenyl]carbamoyl}-D-prolyl)amino]pyridin-3-yl}benzoic acid], the IC50 is 110 nM. Turning to `CC(C)c1ccc(NC(=O)N2CCC[C@@H]2C(=O)Nc2ncc(-c3ccc(C(=O)O)cc3)cc2F)cc1` [Example 25, 4-{5-Fluoro-6-[(1-{[4-(propan-2-yl)phenyl]carbamoyl}-D-prolyl)amino]pyridin-3-yl}benzoic acid], the half-inhibitory concentration (IC50) was 86 nM.
